# Data published in patent publication US10493060B2, “Spirocyclic compounds” (ZENO ROYALTIES & MILESTONES, LLC, priority 2015, dated 2019).
# Columns and labels:
# Activated ERK1 = Activated ERK1 (Homo sapiens (Human), UniProt P27361); test: Active ERK1 kinase assay (Mobility Shift Assay); assay type: biochemical
# Description: (§1) Activated ERK1 and ERK2 activity was determined in a Mobility Shift Assay (MSA) format as follows: Compound and kinase solution were prepared with assay buffer (20 mM HEPES, 0.01% Triton X-100, 2 mM DTT, pH7.5) and mixed and incubated in for 30 mins at rt. ERK1 & ERK2 were then activated by the addition of Fl-Substrate, ATP and metal solution and incubated for 1 h at rt. After 1 h, the reaction was terminated by the addition of […] of Termination Buffer (QuickScout Screening Assist MSA; Carna Biosciences) to the well. The reaction mixture was applied to LabChip™ system (PerkinElmer), and the product and substrate peptide peaks were separated, analyzed and quantitated. The kinase reaction is evaluated by the product ratio calculated from peak heights of product (P) and substrate (S) peptides (P/(P+S)).
# Activated ERK2 = Activated ERK2 (Homo sapiens (Human), UniProt P28482); test: Active ERK2 kinase assay (Mobility Shift Assay); assay type: biochemical
# Description: as §1
# Chain of Activated ERK2 (P28482 whole entry): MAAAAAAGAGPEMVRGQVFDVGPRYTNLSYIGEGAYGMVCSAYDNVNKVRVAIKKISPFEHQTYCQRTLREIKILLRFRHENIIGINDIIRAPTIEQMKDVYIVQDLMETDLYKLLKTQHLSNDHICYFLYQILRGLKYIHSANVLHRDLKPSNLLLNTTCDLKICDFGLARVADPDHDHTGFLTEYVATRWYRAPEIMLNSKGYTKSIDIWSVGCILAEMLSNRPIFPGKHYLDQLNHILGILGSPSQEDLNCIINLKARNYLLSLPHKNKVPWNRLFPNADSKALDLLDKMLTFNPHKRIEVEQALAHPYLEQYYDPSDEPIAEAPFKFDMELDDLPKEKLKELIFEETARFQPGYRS
# Chain of Activated ERK1 (P27361 whole entry): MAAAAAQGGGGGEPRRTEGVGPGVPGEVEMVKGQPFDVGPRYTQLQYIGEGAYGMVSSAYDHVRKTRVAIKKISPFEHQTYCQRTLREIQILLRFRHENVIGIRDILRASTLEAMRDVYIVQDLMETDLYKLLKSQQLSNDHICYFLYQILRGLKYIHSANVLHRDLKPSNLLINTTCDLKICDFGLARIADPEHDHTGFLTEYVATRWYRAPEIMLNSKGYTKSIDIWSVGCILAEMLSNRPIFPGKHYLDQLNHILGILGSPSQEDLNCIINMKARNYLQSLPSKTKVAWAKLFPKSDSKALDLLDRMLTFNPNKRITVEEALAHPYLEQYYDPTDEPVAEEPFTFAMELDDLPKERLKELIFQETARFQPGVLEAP
SMILES,IC50 (Activated ERK1) [nM],IC50 (Activated ERK2) [nM]
"CC(C)Oc1ccc(-c2n[nH]c3ccc(N4CCC5(CCN(CC(=O)N6CC=C(c7ccc(-c8ncn(C)n8)cc7)CC6)C5)C4=O)cc23)cn1 (stereo not drawn) [Example 1, 2-(3-(6-Isopropoxypyridin-3-yl)-1H-indazol-5-yl)-7-(2-(4-(4-(1-methyl-1H-1,2,4-triazol-3-yl)phenyl)-3,6-dihydropyridin-1(2H)-yl)-2-oxoethyl)-2,7-diazaspiro[4.4]nonan-1-one]",≤ 50,≤ 50
"CC(C)Oc1ccc(-c2n[nH]c3ccc(N4CCC5(CCN(CC(=O)N6CCN(c7ccc(-c8ncn(C)n8)cc7)CC6)C5)C4)cc23)cn1 (stereo not drawn) [Example 2, 2-(7-(3-(6-Isopropoxypyridin-3-yl)-1H-indazol-5-yl)-2,7-diazaspiro[4.4]nonan-2-yl)-1-(4-(4-(1-methyl-1H-1,2,4-triazol-3-yl)phenyl)piperazin-1-yl)ethan-1-one]",≥ 250,≥ 250
"CC(C)Oc1ccc(-c2n[nH]c3ccc(N4CCC5(CCN(CC(=O)N6CC=C(c7ccc(-c8ncn(C)n8)cc7)CC6)C5)C4)cc23)cn1 (stereo not drawn) [Example 4, 2-(7-(3-(6-Isopropoxypyridin-3-yl)-1H-indazol-5-yl)-2,7-diazaspiro[4.4]nonan-2-yl)-1-(4-(4-(1-methyl-1H-1,2,4-triazol-3-yl)phenyl)-3,6-dihydropyridin-1(2H)-yl)ethan-1-one]",≥ 250,≥ 250
"CC(C)Oc1ccc(-c2n[nH]c3ccc(N4CCC5(CCN(CC(=O)N6CCN(c7ccc(-c8ncn(C)n8)cc7)CC6)C5)C4=O)cc23)cn1 (stereo not drawn) [Example 3, 2-(3-(6-Isopropoxypyridin-3-yl)-1H-indazol-5-yl)-7-(2-(4-(4-(1-methyl-1H-1,2,4-triazol-3-yl)phenyl)piperazin-1-yl)-2-oxoethyl)-2,7-diazaspiro[4.4]nonan-1-one]",≤ 50,≤ 50

# Now from value to molecule:
IC50 (Activated ERK1) [nM],IC50 (Activated ERK2) [nM],SMILES
≤ 50,≤ 50,"CCNc1nnc(-c2ccc(C3=CCN(C(=O)CN4CC[C@]5(CCN(c6ccc7[nH]nc(-c8ccc(OC(C)C)nc8)c7c6)C5=O)C4)CC3)cc2)s1 [Example 19, (S)-7-(2-(4-(4-(5-(Ethylamino)-1,3,4-thiadiazol-2-yl)phenyl)-3,6-dihydropyridin-1(2H)-yl)-2-oxoethyl)-2-(3-(6-isopropoxypyridin-3-yl)-1H-indazol-5-yl)-2,7-diazaspiro[4.4]nonan-1-one]"
50 to 250,≤ 50,"Cc1cc(-c2n[nH]c3ccc(N4CC[C@@]5(CCN(CC(=O)N6CC=C(c7ccc(-c8ncn(C)n8)cc7)CC6)C5)C4=O)cc23)ccn1 [Example 9, (R)-7-(2-(4-(4-(1-Methyl-1H-1,2,4-triazol-3-yl)phenyl)-3,6-dihydropyridin-1(2H)-yl)-2-oxoethyl)-2-(3-(2-methylpyridin-4-yl)-1H-indazol-5-yl)-2,7-diazaspiro[4.4]nonan-1-one]"
50 to 250,50 to 250,"CC(C)Oc1ccc(-c2n[nH]c3ccc(N4CCC5(CN(CC(=O)N6CC=C(c7ccc(-c8ncn(C)n8)cc7)CC6)C5)C4=O)cc23)cn1 [Example 13, 6-(3-(6-Isopropoxypyridin-3-yl)-1H-indazol-5-yl)-2-(2-(4-(4-(1-methyl-1H-1,2,4-triazol-3-yl)phenyl)-3,6-dihydropyridin-1(2H)-yl)-2-oxoethyl)-2,6-diazaspiro[3.4]octan-5-one]"
≥ 250,≥ 250,"CC(C)Oc1ccc(-c2n[nH]c3ccc(N4CCC5(CCN(Cc6ccccc6)C5)C4=O)cc23)cn1 (stereo not drawn) [Example 21, 7-Benzyl-2-(3-(6-isopropoxypyridin-3-yl)-1H-indazol-5-yl)-2,7-diazaspiro[4.4]nonan-1-one]"
≥ 250,50 to 250,"CC(C)Oc1ccc(-c2n[nH]c3ccc(N4CCCC5(CCN(CC(=O)N6CC=C(c7ccc(-c8ncn(C)n8)cc7)CC6)C5)C4=O)cc23)cn1 (stereo not drawn) [Example 5, 7-(3-(6-Isopropoxypyridin-3-yl)-1H-indazol-5-yl)-2-(2-(4-(4-(1-methyl-1H-1,2,4-triazol-3-yl)phenyl)-3,6-dihydropyridin-1 (2H)-yl)-2-oxoethyl)-2,7-diazaspiro[4.5]decan-6-one]"
